21 compounds from PubChem BioAssay (NCI) can be followed below.

Among the test systems are LOX IMVI melanoma; OVCAR-5 ovarian; A549 NSCLC; M14 melanoma; OVCAR-4 ovarian; 786-0 renal; OVCAR-3 ovarian; SK-MEL-28 melanoma; RPMI-8226 leukemia.
Holding throughout (assay): NCI-60 cell line screen, 48 h

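Growth conditions: 96-well plates. Treatment: test compound, 48 hours, 5 concentrations. Analysis: linear interpolation between bracketing concentrations; unreached endpoints set to highest concentration. GI50: concentration for 50% inhibition of growth. TGI marks complete inhibition of growth.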

Regarding `O=C(CNCc1ccccc1)Oc1c(Cl)c(Cl)c(Cl)c(Cl)c1Cl`, the TGI in the experiment with LOX IMVI melanoma is 74.4 µM; in the experiment on OVCAR-5 ovarian it was more than 100 µM; with A549 NSCLC, 69.1 µM; with M14 melanoma, more than 100 µM; in the experiment with OVCAR-4 ovarian, more than 100 µM; in the experiment on 786-0 renal it was more than 100 µM. Further, the TGI with OVCAR-3 ovarian was 62.9 µM; in the experiment with SK-MEL-28 melanoma, more than 100 µM.
In the case of `O=C1CC(Sc2nc3ccc(I)cc3c(=O)n2Cc2ccccc2)C(=O)NN1` (stereo not drawn), the TGI with LOX IMVI melanoma was found to be 11.2 µM; with OVCAR-5 ovarian it was 41.4 µM; in the experiment on A549 NSCLC it was 89.4 µM; in the experiment on M14 melanoma it was 39.8 µM; in the experiment with OVCAR-4 ovarian it was 36.8 µM; in the experiment with RPMI-8226 leukemia, 45.5 µM. The TGI with 786-0 renal amounted to 28.4 µM; in the experiment with OVCAR-3 ovarian, 31.2 µM; with SK-MEL-28 melanoma it was 31.7 µM.
Regarding `CCOC(=O)C(C)c1nc2c(Cl)c3ncccc3cc2[nH]c1=O` (stereo not drawn), the TGI in the experiment with LOX IMVI melanoma, with OVCAR-5 ovarian, with A549 NSCLC, with M14 melanoma, with OVCAR-4 ovarian and in the experiment with RPMI-8226 leukemia was more than 100 µM in each case. For the same compound, the TGI in the experiment with 786-0 renal, with OVCAR-3 ovarian and with SK-MEL-28 melanoma was more than 100 µM throughout.
`Cc1cn2c(C)csc2c1P(=O)(OC(C)C)OC(C)C`: the TGI with LOX IMVI melanoma, in the experiment with OVCAR-5 ovarian, in the experiment on A549 NSCLC, in the experiment with M14 melanoma, with OVCAR-4 ovarian and in the experiment on RPMI-8226 leukemia was more than 100 µM each time. Besides, the TGI in the experiment with 786-0 renal, in the experiment on OVCAR-3 ovarian and in the experiment on SK-MEL-28 melanoma was more than 100 µM each time.
As for `Cc1cc2nc(-c3cc(C(C)(C)C)c(O)c(C(C)(C)C)c3)[nH]c2cc1C`, the TGI in the experiment with LOX IMVI melanoma was 28.6 µM; in the experiment with OVCAR-5 ovarian, more than 100 µM; in the experiment on A549 NSCLC, 26.3 µM; in the experiment with M14 melanoma it was more than 100 µM; with OVCAR-4 ovarian, more than 23.3 µM; in the experiment with RPMI-8226 leukemia it was more than 100 µM. Also, the TGI with 786-0 renal was 2.73 µM; in the experiment with OVCAR-3 ovarian, more than 100 µM; with SK-MEL-28 melanoma, more than 100 µM.
With `COc1ccc(N=C2C(=S)N(c3ccc(OC)cc3)/C(=N/S(=O)(=O)c3ccccc3)N2c2ccccc2)cc1`, the TGI in the experiment with LOX IMVI melanoma is 16.9 µM; in the experiment on OVCAR-5 ovarian it was 32 µM; with A549 NSCLC, more than 73.1 µM; in the experiment on M14 melanoma it was 12.2 µM; with OVCAR-4 ovarian, 22.4 µM; in the experiment on RPMI-8226 leukemia it was more than 100 µM. Further, the TGI in the experiment on 786-0 renal stood at 19.7 µM; with OVCAR-3 ovarian, 18.1 µM; with SK-MEL-28 melanoma it was 29.7 µM.
In the case of `Cc1cc2c(nn1)-c1ccccc1C2=O`, the TGI in the experiment on LOX IMVI melanoma, in the experiment with OVCAR-5 ovarian, in the experiment with A549 NSCLC, with M14 melanoma, with OVCAR-4 ovarian and in the experiment with RPMI-8226 leukemia was more than 10 µM each time. Also, the TGI with 786-0 renal, in the experiment with OVCAR-3 ovarian and with SK-MEL-28 melanoma was more than 10 µM each time.
Turning to `NS(=O)(=O)c1ccc(NC(NC(=O)C(C(F)(F)F)C(F)(F)F)(C(F)(F)F)C(F)(F)F)cc1`, the TGI in the experiment with LOX IMVI melanoma, in the experiment with OVCAR-5 ovarian, with A549 NSCLC, with M14 melanoma, with OVCAR-4 ovarian and with RPMI-8226 leukemia was more than 100 µM in each case. For the same compound, the TGI in the experiment with 786-0 renal, with OVCAR-3 ovarian and in the experiment on SK-MEL-28 melanoma was more than 100 µM throughout.
For `COC(=O)C1(Cc2ccc3c(c2)CCC3)Cc2cc3c(cc2C1)CCC3`, the TGI in the experiment with LOX IMVI melanoma is 42.3 µM; in the experiment on OVCAR-5 ovarian, more than 100 µM; in the experiment on A549 NSCLC, more than 100 µM; with M14 melanoma, more than 100 µM; with OVCAR-4 ovarian, 89.3 µM; in the experiment on RPMI-8226 leukemia it was more than 100 µM. In addition, the TGI in the experiment with 786-0 renal, with OVCAR-3 ovarian and in the experiment on SK-MEL-28 melanoma was more than 100 µM in each case.
With `CCOC(=O)C1CN(C2CC2)CCC1=O` (stereo not drawn), the TGI in the experiment on LOX IMVI melanoma, in the experiment with OVCAR-5 ovarian, with A549 NSCLC, with M14 melanoma, in the experiment on OVCAR-4 ovarian and in the experiment with RPMI-8226 leukemia was more than 100 µM throughout. Also, the TGI in the experiment on 786-0 renal, with OVCAR-3 ovarian and in the experiment with SK-MEL-28 melanoma was more than 100 µM in each case.
As for `Cc1ccc(S(=O)(=O)NC(=O)NNc2ccc(F)cc2)cc1`, the TGI with LOX IMVI melanoma is more than 100 µM; in the experiment with OVCAR-5 ovarian, more than 100 µM; in the experiment with A549 NSCLC, more than 100 µM; in the experiment with M14 melanoma, more than 100 µM; with OVCAR-4 ovarian, more than 100 µM; with RPMI-8226 leukemia, more than 58.2 µM. The TGI in the experiment with 786-0 renal, with OVCAR-3 ovarian and in the experiment on SK-MEL-28 melanoma was more than 100 µM in each case.
Consider `Cc1c(C#N)c(N)n(C2OCC(O)C(O)C2O)c(=S)c1C#N` (stereo not drawn), for which the TGI in the experiment on LOX IMVI melanoma, with OVCAR-5 ovarian, in the experiment with A549 NSCLC, in the experiment with M14 melanoma, with RPMI-8226 leukemia and in the experiment on 786-0 renal was more than 100 µM each time. Also, the TGI in the experiment with OVCAR-3 ovarian and in the experiment with SK-MEL-28 melanoma was more than 100 µM in each case.
In the case of `C[C@]1(S(=O)(=O)c2ccccc2)C[C@H]2N(Cc3ccccc3)[C@@H]1CCC21OCCO1`, the TGI in the experiment on LOX IMVI melanoma, in the experiment with OVCAR-5 ovarian, in the experiment with A549 NSCLC, in the experiment with M14 melanoma, with OVCAR-4 ovarian and with 786-0 renal was more than 100 µM in each case. For the same compound, the TGI in the experiment with OVCAR-3 ovarian and in the experiment on SK-MEL-28 melanoma was more than 100 µM in each case.
Regarding `COc1cc2c(cc1OC)C13CC[N+]4(C)CC5=CCOC6CC(=O)N2C1C6C5CC34[O-]` (stereo not drawn), the TGI in the experiment with LOX IMVI melanoma, in the experiment with A549 NSCLC, in the experiment with M14 melanoma, with OVCAR-4 ovarian, in the experiment with RPMI-8226 leukemia and in the experiment on 786-0 renal was more than 100 µM each time. Besides, the TGI in the experiment with OVCAR-3 ovarian and in the experiment with SK-MEL-28 melanoma was more than 100 µM in each case.
As for `CCN1C(=O)N(CC)C2Nn3c(s/c(=C4\C(=O)N(C)c5ccccc54)c3=O)=NC21` (stereo not drawn), the GI50 is 4.82 µM with LOX IMVI melanoma; 5.08 µM in the experiment on A549 NSCLC; 2.41 µM in the experiment on M14 melanoma; 1.98 µM with OVCAR-4 ovarian; 3.97 µM in the experiment on RPMI-8226 leukemia; 1.99 µM with OVCAR-3 ovarian. For the same compound, the GI50 in the experiment with SK-MEL-28 melanoma was 6.45 µM. Also, the TGI in the experiment with LOX IMVI melanoma, in the experiment on A549 NSCLC, with M14 melanoma, in the experiment with OVCAR-4 ovarian, in the experiment on RPMI-8226 leukemia and in the experiment with OVCAR-3 ovarian was more than 100 µM each time. For the same compound, the TGI with SK-MEL-28 melanoma is more than 100 µM.
Consider `N#Cc1c(C#N)c(-c2ccccc2)n(-c2ccccc2)c1N`, for which the TGI with LOX IMVI melanoma, in the experiment with OVCAR-5 ovarian, in the experiment on A549 NSCLC, in the experiment with M14 melanoma, in the experiment with OVCAR-4 ovarian and with RPMI-8226 leukemia was more than 100 µM each time. Besides, the TGI in the experiment with 786-0 renal and in the experiment on OVCAR-3 ovarian was more than 100 µM each time.
With `O=C(Nc1ccc(-n2cc(-c3ccncc3)c(-c3ccc(O)c(Cl)c3)n2)cc1)Nc1cccc(Cl)c1Cl`, the GI50 is 3.45 µM in the experiment on LOX IMVI melanoma; more than 32.5 µM in the experiment with OVCAR-5 ovarian; 9.11 µM in the experiment with A549 NSCLC; 3.16 µM in the experiment on M14 melanoma; 5.47 µM in the experiment on OVCAR-4 ovarian; 0.912 µM in the experiment with RPMI-8226 leukemia. Also, the results for the GI50 in the experiment with OVCAR-3 ovarian and in the experiment on SK-MEL-28 melanoma were 6.67 µM and 5.8 µM, respectively. Moreover, the TGI in the experiment with LOX IMVI melanoma was more than 32.5 µM; in the experiment with OVCAR-5 ovarian, more than 32.5 µM; in the experiment with A549 NSCLC, more than 32.5 µM; in the experiment on M14 melanoma, more than 32.5 µM; with OVCAR-4 ovarian it was more than 32.5 µM; in the experiment with RPMI-8226 leukemia, 6.08 µM. The figures for the TGI in the experiment on OVCAR-3 ovarian and with SK-MEL-28 melanoma were more than 32.5 µM and 18 µM, respectively.
Regarding `CC(C)(C)OC(=O)C1C(=O)NC(=O)CC1C(COCc1ccccc1)OCc1ccccc1` (stereo not drawn), the TGI in the experiment with LOX IMVI melanoma was 34.7 µM; in the experiment on OVCAR-5 ovarian, 41.1 µM; in the experiment with A549 NSCLC, more than 100 µM; with M14 melanoma, 34.8 µM; in the experiment on RPMI-8226 leukemia, 62.6 µM; in the experiment with 786-0 renal, 45.3 µM. For the same compound, the TGI in the experiment on OVCAR-3 ovarian worked out at 46.3 µM; in the experiment on SK-MEL-28 melanoma, 32.1 µM.
As to `COc1cc(CNc2nc3cc(C(F)(F)F)ccc3nc2-c2ccccc2)cc(OC)c1OC`, the TGI with LOX IMVI melanoma, in the experiment on A549 NSCLC, with M14 melanoma, in the experiment on RPMI-8226 leukemia, with 786-0 renal and with OVCAR-3 ovarian was more than 100 µM in each case. For the same compound, in the experiment with SK-MEL-28 melanoma, the TGI was more than 100 µM.
On to `CCOC(=O)[C@@H]1ON2O[C@@H](OC3CCCC3(c3ccccc3)c3ccccc3)C[C@H]3OC(=O)[C@@H]1C32` (stereo partly drawn), for which the TGI in the experiment on LOX IMVI melanoma was more than 100 µM; in the experiment on OVCAR-5 ovarian, 78.4 µM; in the experiment with A549 NSCLC, 57.4 µM; in the experiment with M14 melanoma, 51.9 µM; with RPMI-8226 leukemia, 90.6 µM; in the experiment on 786-0 renal, 79 µM. Moreover, the TGI in the experiment on OVCAR-3 ovarian is 54.1 µM.
For the compound `COC(=O)C1=C(O)C(C(=O)OC)[C@@]2(O)[C@@H](C(=O)OC)[C@H](C)[C@@H](C)[C@@H]1[C@@H]2C(=O)OC` (stereo partly drawn), the TGI in the experiment with LOX IMVI melanoma is more than 100 µM; in the experiment with OVCAR-5 ovarian it was more than 100 µM; with M14 melanoma, more than 100 µM; with RPMI-8226 leukemia, more than 100 µM; in the experiment with OVCAR-3 ovarian, 78.2 µM; in the experiment with SK-MEL-28 melanoma it was more than 100 µM.
